# Results published in ChEMBL document CHEMBL1154855 (Eur J Med Chem, 2010).
# Test system: Vaccinia virus
# Assay: Antiviral activity against Vaccinia virus infected in HEL cells assessed as protection from virus-induced cytopathogenicity after 2 to 3 days by MTT assay
# Type: functional, organism-based
# Details: Orthopoxvirus vaccinia
row,SMILES,EC50 [nM]
1,CCCCCCCCCC(=O)Oc1ccc(/C=C/C(=O)CC(=O)/C=C/c2ccc(OC(=O)CCCCCCCCC)c(OC)c2)cc1OC,> 147
2,Nc1nc2c(ncn2COC(CO)CO)c(=O)[nH]1 [GANCICLOVIR],> 100000
3,COc1cc(/C=C/C(=O)CC(=O)/C=C/c2ccc(OC(=O)CCC(NC(=O)c3ccc(NCc4cnc5nc(N)[nH]c(=O)c5n4)cc3)C(=O)O)c(OC)c2)ccc1OC(=O)CCC(NC(=O)c1ccc(NCc2cnc3nc(N)[nH]c(=O)c3n2)cc1)C(=O)O (stereo not drawn),> 82
4,NC(=O)c1ncn([C@@H]2O[C@H](CO)[C@@H](O)[C@H]2O)n1 [RIBAVIRIN],85000
5,COc1cc(/C=C/C(=O)C(CCOC(=O)CCC(NC(=O)c2ccc(NCc3cnc4nc(N)[nH]c(=O)c4n3)cc2)C(=O)O)C(=O)/C=C/c2ccc(O)c(OC)c2)ccc1O (stereo not drawn),> 11
6,COc1cc(/C=C/C(=O)CC(=O)/C=C/c2ccc(OCCOC(=O)CCC(NC(=O)c3ccc(NCc4cnc5nc(N)[nH]c(=O)c5n4)cc3)C(=O)O)c(OC)c2)ccc1O (stereo not drawn),> 119
7,O=c1[nH]c(=O)n([C@H]2C[C@H](O)[C@@H](CO)O2)cc1/C=C/Br [BRIVUDINE],2000
8,COc1cc(/C=C/C(=O)CC(=O)/C=C/c2ccc(OC(=O)[C@H](Cc3ccccc3)NC(=O)[C@@H](N)Cc3c[nH]c4ccccc34)c(OC)c2)ccc1OC(=O)[C@H](Cc1ccccc1)NC(=O)[C@@H](N)Cc1c[nH]c2ccccc12,> 38
